The data set is described as follows: Solubility of amlodipine hemifumarate in water and organic solvents (descriptive statement). The format is physicochemical. Particulars: in water and most commonly used organic solvents.

For Amlodipine Hemifumarate, the solubility result is recorded as “insoluble or only sparingly soluble”.
